Measurements from article PMC9144936, “New Cu^+2 Complexes with N-Sulfonamide Ligands: Potential Antitumor, Antibacterial, and Antioxidant Agents” (Molecules, 2022).

Legend:
[1] = system: Bacillus cerreus ATCC 14579; experiment: Disk diffusion method, B. cerreus; format: cell-based; conditions: complexes 5 µL of 1 mg/mL; 25 µg Amoxicillin, 5 µg Norfloxacin; 24 h, 37 °C
From the text: (§1) The disk diffusion method was used to determine the antibacterial activity of the C1 and C2 copper complexes on four reference microbial strains, two Gram-positive (Staphylococcus aureus and Bacillus cerreus) and two Gram-negative (Escherichia coli and Pseudomonas aeruginosa) strains. The disk diffusion method was used to determine the antibacterial activity of the C1 and C2 copper complexes. The method was adapted for the purposes of the current study, according to the standards developed by the Clinical and Laboratory Standards Institute. Four reference microbial strains, two Gram-positive (Staphylococcus aureus ATCC […] and Bacillus cerreus ATCC 14579) and two Gram-negative (Escherichia coli ATCC 10536 and Pseudomonas aeruginosa ATCC 27853) strains, were used for in vitro susceptibility testing. These reference microbial strains were obtained from the American Type Culture Collection (ATCC, Manassas, VA, USA). As positive controls, Amoxicillin (Oxoid Ltd., Basingstoke, UK) and Norfloxacin (Sigma-Aldrich) were used. For each of the four species, an initial suspension of bacterial cultures was inoculated on nutrient agar plates (Merck KGaA, Darmstadt, Germany), incubated for 24 h at 37 ± 2 °C and resuspended in a physiological saline buffer to a […] concentration (on a 0.5 McFarland scale), and further inoculated on Muëller Hinton agar plates (Merck KGaA, Darmstadt, Germany). […] After inoculation, the medium surface was dried and 8 wells were radially drilled 1.5 cm from the outer edge, 3 cm apart. From aliquot samples of 1 mg/mL of each copper complex dissolved in DMSO and incorporated in sterile liquid medium, 5 μL was placed in each of the 8 wells and left for 30 min to diffuse into the agar plates. The plates were then incubated for 24 h at 37 ± 2 °C. Then, 25 μg Amoxicillin and 5 μg Norfloxacin served as a positive controls, while DMSO 0.75% was used as a negative control. Readings were conducted by measuring the diameter of the inhibition zone (Halo Zone Test, in mm). The germ sensitivity of the copper complexes was estimated by comparing the diameter of the inhibition area to that generated by the regular antibiotics with known inhibition values. […] All tests were triplicated, and the measured diameters of the inhibition zone were expressed (in mm) as mean ± standard deviation.

[2] = system: Staphylococcus aureus ATCC 6538P; experiment: Disk diffusion method, S. aureus; format: cell-based; conditions: complexes 5 µL of 1 mg/mL; 25 µg Amoxicillin, 5 µg Norfloxacin; 24 h, 37 °C
From the text: as §1

[3] = system: Staphylococcus aureus ATCC 6538P; experiment: MIC, serial broth microdilution, S. aureus; format: cell-based; conditions: 24 h, 37 °C
Experimental: (§2) The values of MIC, defined as the lowest concentration of antimicrobial complex that prevents visible growth of germs, are presented in Table S4 in the Supplementary Material. To quantify the copper complexes effectiveness as antibacterial agents, their minimum inhibitory concentrations (MICs) were determined using the serial broth microdilution method described by Quinn et al. and Markey et al.. The method was adapted for the purposes of the current study, according to the standards developed by the Clinical and Laboratory Standards Institute. The tests were performed on the same Gram-positive and Gram-negative reference microbial strains. Ten successive dilutions of the copper complexes solutions (1/2 to 1/1024) in nutrient broth (Merck KGaA, Darmstadt, Germany) were performed and then were placed in sterile microplates (one each for every copper complex). The microplates were incubated at 37 ± 2 °C for 24 h. Comparisons of the amount of bacterial growth in each well containing copper complexes solutions with the amount of growth in the growth control wells were performed and the maximal dilution for which the tested copper complexes inhibited bacterial growth was determined.

[4] = system: Pseudomonas aeruginosa ATCC 27853; experiment: MIC, serial broth microdilution, P. aeruginosa; format: cell-based; conditions: 24 h, 37 °C
Experimental: as §2

[5] = system: supercoiled pUC18 DNA; experiment: DNA cleavage (nuclease activity), agarose gel electrophoresis with H2O2/ascorbic acid; format: biochemical; conditions: 37 °C; for effect of sodium azide on the ability to destroy the nucleic acid molecule: complex 10 μM, ascorbic acid/H2O2, 1 h, NaN3 400 mM; for concentration at which the circular shape of DNA appears / concentration at which the linear shape of DNA appears: pUC18, cacodylate buffer 0.1 M pH 6.0, H2O2/ascorbic acid, 1 h
From the text: The activity of the complexes as chemical nucleases was studied using supercoiled pUC18 DNA in cacodylate buffer (0.1M, pH 6.0) in the presence of H2O2/ascorbic acid, with a 3.0-fold excess relative to the complex concentration. The efficiency of the complexes was compared with that of both copper sulfate and bis(o-phenanthroline) Cu^+2 complex under the same reaction conditions.
The nuclease activity of the complexes C1 and C2 was studied in the presence of certain inhibiting agents: DMSO, t-butyl alcohol, distamycin, sodium azide, 2,2,6,6-tetramethyl-4-piperidone, superoxide dismutase, and neocuproine, in an attempt to determine the ROS involved in the degradation process of the DNA molecule. We chose a concentration of 10 μM for the complexes and a concentration […] for the reducing agents ascorbic acid/H2O2. The incubation period of the samples was 1 h, at 37 °C. The resulting electropherograms are presented in Figure S8 in the Supplementary Material.
Reactions were performed by mixing 7 μL of cacodylate buffer 0.1 M, pH 6 (cacodylic acid/sodium cacodylate), 6 μL of complex solution (final concentrations: 5, 10, 15, and 20 μM), 1 μL of pUC18 DNA solution (0.25 μg/μL, 750 μM in base pairs), and 6 μL of activating agent solution (H2O2/ascorbic acid) in a 3-fold molar excess relative to the concentration of the complex. The resulting solutions were incubated for 1 h at 37 °C, after which a quench buffer solution (3 μL) consisting of bromophenol blue (0.25%), xylene cyanol (0.25%), and glycerol (30%) was added. The solution was then subjected to electrophoresis on 0.8% agarose gel in 0.5 × TBE buffer (0.045 M Tris, 0.045 M boric acid, and 1 mM EDTA) containing 5 μL/100 mL of a solution of ethidium bromide (10 mg/mL) at 100 V for 2 h. The bands were photographed on a capturing system (Gelprinter Plus TDI).
To test for the presence of reactive oxygen species (ROS) generated during strand scission and for possible complex–DNA interaction sites, various reactive oxygen intermediate scavengers and groove binders were added to the reaction mixtures. The scavengers used were 2,2,6,6-tetramethyl-4-piperidone (0.5 M), dimethylsulfoxide (DMSO) 14 M, t-butyl alcohol (10.5 M), sodium azide (NaN3) (400 mM), and superoxide dismutase (SOD) (15 units). In addition, a chelating agent of copper(I) and neocuproine (36 μM), along with the groove binder distamycin (80 μM) were also assayed. Samples were treated as described above.

[6] = system: Escherichia coli ATCC 10536; experiment: Disk diffusion method, E. coli; format: cell-based; conditions: complexes 5 µL of 1 mg/mL; 25 µg Amoxicillin, 5 µg Norfloxacin; 24 h, 37 °C
From the text: as §1

Row | Substance | Halo Zone Test (diameter of the inhibition zone) [1] | Halo Zone Test (diameter of the inhibition zone) [2] | MIC [3] | MIC [4] | effect of sodium azide on the ability to destroy the nucleic acid molecule [5] | concentration at which the circular shape of DNA appears [5] | concentration at which the linear shape of DNA appears [5] | Halo Zone Test (diameter of the inhibition zone) [6]
1 | [Cu(N-(5-Ethyl--[1,3,4]-Thiadiazole-2-yl) Naphtalenesulfonamidate)2(py)2(H2O)] [C2] | 12 ± 0.34 mm | 15 ± 0.44 mm | 0.202 µg/mL | 0.089 µg/mL | little effect | 10 µM | 15 µM | 16 ± 0.21 mm
2 | [Cu(N-(5-(4-Methylphenyl)-[1,3,4]-Thiadiazole-2-yl) Naphtalenesulfonamidate)2(H2O)3] [C1] | 11 ± 0.25 mm | 13 ± 0.17 mm | 0.289 µg/mL | 0.196 µg/mL | little effect | 15 µM | 20 µM | 14 ± 0.11 mm
